Test results taken from US10004747B2, “Combination therapy” (Boehringer Ingelheim International GmbH, priority 2010, dated 2018).
“Also recorded” adds a separate entry of the source. Marks after values point to notes of the source that are not given here.

What was measured:
[1] = Pharmacokinetics of BI 1356 after multiple oral doses once daily for 12 days in patients with type 2 diabetes; conditions: for RA, AUC (accumulation ratio) / RA, Cmax (accumulation ratio): 12 days, type 2 diabetes patients, gMean
[2] = Linagliptin alone or with low-dose exenatide for 28 days: plasma parameters and body composition in DIO rats
[3] = Day 29, DIO rats, vehicle pump + Linagliptin 3 mg/kg PO, mean ± SEM

**Q.** Which results are given for `CC#CCn1c(N2CCC[C@@H](N)C2)nc2c1c(=O)n(Cc1nc(C)c3ccccc3n1)c(=O)n2C` [BI 1356]?
**A.** RA, AUC (accumulation ratio) ([1]; 1 mg once daily oral): 2.03; RA, Cmax (accumulation ratio) ([1]; 1 mg once daily oral): 1.44; RA, AUC (accumulation ratio) ([1]; 2.5 mg once daily oral): 1.37; RA, Cmax (accumulation ratio) ([1]; 2.5 mg once daily oral): 1.25; RA, AUC (accumulation ratio) ([1]; 5 mg once daily oral): 1.33; RA, Cmax (accumulation ratio) ([1]; 5 mg once daily oral): 1.33; RA, AUC (accumulation ratio) ([1]; 10 mg once daily oral): 1.18; RA, Cmax (accumulation ratio) ([1]; 10 mg once daily oral): 1.40; excretion via the kidney ([1]; therapeutic oral dose levels): < 7 % of the administered oral dose; main route of excretion ([1]; therapeutic oral dose levels): mainly excreted via the liver; also recorded: primarily excreted unchanged via the bile; Carcass Fat [2, 3]: 151.1 ± 7.3 g; Carcass Protein [2, 3]: 63.8 ± 4.0 g; Carcass Water [2, 3]: 212.6 ± 3.4 g; GLP-1 (pM) [2, 3]: 5.72 ± 0.9^b pM; Glucose [2, 3]: 8.72 ± 0.22 mM; Insulin [2, 3]: 1.82 ± 0.36 ng/mL; Leptin [2, 3]: 23.9 ± 2.5 ng/mL; augmentation of the effect of a low dose of exenatide ([2]; linagliptin 3 mg/kg po in combination with exenatide 3 μg/kg/day sc, 28 days, DIO rats): does not augment the effect of a low dose of exenatide; effect on body weight, daily food intake, plasma glucose, insulin or carcass fat compared to vehicle-treated controls ([2]; rat, in vivo): no effect; body weight from day 11 after exenatide treatment (BI 1356 3 mg/kg po from Day 11 after exenatide 30 μg/kg/day Day 1-10, DIO rats, vs vehicle control): stabilize their body weight at the new weight level; less fat put on than vehicle-treated counterparts during exenatide withdrawal (linagliptin 3 mg/kg po after exenatide withdrawal, DIO rats, p=0.07): 10.6%; body fat weight regain after GLP-1R agonist cessation (replacement of exenatide 30 μg/kg/day (Day 1-10) with linagliptin 3 mg/kg po from Day 11, DIO rats): prevents body fat weight regain
